Common to all, as to test: cells
The subject of test [1] is PK1 neuroblastoma cells treated with TPrP. It counts as cell-based. To be noted: for EC50: Neuroblastoma cell, read-out: Viability EC50.
Test [2] has the same test system. It counts as cell-based. To be noted: Neuroblastoma cell, read-out: NAD EC50.
In the next test the test system is Cells exposed to TPrP. The settings on record: read-out: Viability EC50.

Where two headings read alike, the source gives them in different places.

A word on the EC50: it is the concentration that produces a half-maximal response. On to `COc1cc(OC)c2cc(-c3ccncc3)cnc2c1` [DMPQ], for which the EC50 in test [1] amounted to 505 nM; in test [2] it was 5500 nM. Turning to `COc1ccc(-c2nnc3c4ccccc4c(C)nn23)cc1S(=O)(=O)NC(C)(C)CO` [SR1-87819], the EC50 was found to be 98 nM in test [1] and 682 nM in test [2]. Turning to `Cc1ccc(-c2nnc3c4ccccc4c(C)nn23)cc1S(=O)(=O)NCc1cccnc1` [SR5-22839], the EC50 was found to be 28 nM in test [1] and 92 nM in test [2]. The corresponding values for `COc1ccc2c3c([nH]c2c1)C(C)=NCC3` [SR1-721899, harmaline] are 3800 nM and 14000 nM. The corresponding values for `COc1ccc(-c2cc(=O)c3c(O)cc(OC)c(OC)c3o2)c(OC)c1` [SR5-2616, 2-(2,4-dimethoxyphenyl)-5-hydroxy-7,8-dimethoxy-4H-chromen-4-one] are 1600 nM and 2100 nM.

For the compound `COc1cc2nccc(Oc3ccc(NC(=O)NC4CC4)c(Cl)c3)c2cc1C(N)=O` [lenvatinib, reference compound], the “neuroprotective activity in the TPrP assay” value (shortened to “neuroprotective activity”) in test [1] is “entirely lacked neuroprotective activity”. Regarding `c1ccc2c(c1)OCC(CNc1nnc(Cc3ccncc3)c3ccccc13)O2` (centres unmarked) [SR1-134003], the figures for the EC50 in test [1] and in test [2] were 200 nM and 1200 nM, respectively. The corresponding values for `COc1ccc(-c2nnc3c4ccccc4c(C)nn23)cc1S(=O)(=O)NCc1cccnc1` [SR5-22838] are 90 nM and 380 nM. As to `COc1cc2c(cc1OC)-c1cc3ccc(OC)c(OC)c3c[n+]1CC2` [SR1-841226, palmatine chloride], the results for the EC50 in test [1] and in test [2] were 1100 nM and 2000 nM, respectively. The corresponding values for `NS(=O)(=O)c1ccc(Nc2nc(-c3cc4ccccc4oc3=O)cs2)cc1` [SR1-22833] are 57 nM and 245 nM. The corresponding values for `COc1cc(OC)c2c(=O)cc(-c3ccccc3)oc2c1` [SR1-758978, 5,7-dimethoxy-2-phenyl-4H-chromen-4-one] are 1700 nM and above 10000 nM. In the same order, the values of `Cc1ccc(-c2cc(C(F)(F)F)n3ncc(C(=O)NCCCn4ccnc4)c3n2)cc1` [SR1-527764] are 1.9 nM and 7.1 nM.

On to `COc1ccc(-c2oc3cc(OC)c(OC)c(OC)c3c(=O)c2OC)cc1OC` [SR5-2644, 2-(3,4-dimethoxyphenyl)-3,5,6,7-tetramethoxy-4H-chromen-4-one], for which the EC50 came out at 620 nM in test [1] and 1200 nM in test [2]. The corresponding values for `COc1cc2c(cc1OC)[C@H]1[C@@H](C)c3ccc(OC)c(OC)c3CN1CC2` [SR5-2225, corydaline] are 1300 nM and 2000 nM.

As to `O=c1cc(-c2ccc(O)cc2)oc2cc(O[C@@H]3O[C@H](CO)[C@H](O)[C@H](O)[C@H]3O)cc(O)c12` [SR5-2196, apigenin 7-(β-D-galactopyranosyl) ether], the results for the half-maximal effective concentration (EC50) in test [1] and in test [2] were 4600 nM and above 10000 nM, respectively.

Take `CNS(=O)(=O)c1cc(-c2nnc3c4ccccc4c(C)nn23)ccc1C` [SR1-115255]: the values for the EC50 in test [1] and in test [2] were 196 nM and 1200 nM, respectively. In the same order, the values of `COc1ccc(-c2cc(=O)c3c(OC)c(OC)c(OC)c(OC)c3o2)cc1` [SR-05000002625, 5,6,7,8-tetramethoxy-2-(4-methoxyphenyl)-4H-chromen-4-one] are 1900 nM and 6000 nM.

With `COc1ccc(-c2csc(Nc3ccc(S(N)(=O)=O)cc3)n2)cc1` [SR1-223735], the figures for the EC50 in test [1] and in test [2] were 87 nM and 360 nM, respectively. The corresponding values for `COc1cc2c(cc1O)C[C@H]1c3c(cc(O)c(OC)c3-2)CCN1C` [SR1-758928, boldine] are 2000 nM and 7600 nM. Turning to `NS(=O)(=O)c1ccc(Nc2nc(-c3ccccn3)cs2)cc1` [SR1-477176], the half-maximal effective concentration (EC50) is 227 nM in test [1] and 891 nM in test [2].

Turning to `CNC(=O)c1cc2c(cn1)[nH]c1ccccc12` [SR1-75632, N-methyl-9H-pyrido[3,4-b]indole-3-carboxamide], the EC50 was 3200 nM in test [1] and above 15000 nM in test [2]. In the same order, the values of `COc1ccc(-c2cc(=O)c3c(O)c(OC)c(OC)c(OC)c3o2)cc1OC` [SR-05000002635, 2-(3,4-dimethoxyphenyl)-5-hydroxy-6,7,8-trimethoxy-4H-chromen-4-one] are 81 nM and 609 nM. The corresponding values for `NS(=O)(=O)c1ccc(Nc2nc(-c3ccc(F)cc3)cs2)cc1` [SR1-742242] are 197 nM and 946 nM. The corresponding values for `COc1ccc(C2CC(=O)c3cc(OC)ccc3O2)cc1` (centres unmarked) [SR5-2542, 6-methoxy-2-(4-methoxyphenyl) chroman-4-one] are 2100 nM and above 10000 nM. Take `NS(=O)(=O)c1ccc(Nc2nc(-c3ccc(S(N)(=O)=O)cc3)cs2)cc1` [SR-29450]: in the test with Cells exposed to TPrP, the EC50 came to 15 nM. The same measure, in the same setting: in the case of `Cc1nc(C)c(-c2csc(Nc3ccc(S(=O)(=O)N(C)C)cc3)n2)s1` [SR-27764] it was 70 nM; in that of `Cc1c(-c2ccc3c(c2)OCO3)nc2c(C(=O)NCCCn3ccnc3C)cnn2c1C` [SR0-31106], 30 nM. As to `NS(=O)(=O)c1ccc(Nc2nc(-c3ccccc3)cs2)cc1` [SR1-492469], the concentration giving a half-maximal response (EC50) was 311 nM in test [1] and 859 nM in test [2]. For the compound `COc1cc(-c2cc(C)n3ncc(C(=O)NCCCn4ccnc4C)c3n2)cc(OC)c1OC` [SR0-29248], the EC50 with Cells exposed to TPrP amounted to 4 nM. For the compound `CC1=C[C@@H]2c3cccc4[nH]cc(c34)C[C@H]2N(C)C1` [SR1-75354, agroclavine], the EC50 in test [1] was found to be 1600 nM; in test [2], 2000 nM. Take `Cc1nc(C)c(-c2csc(Nc3ccc(S(=O)(=O)Nc4ccc(F)cc4)cc3)n2)s1` [SR-29449]: the EC50 in the test with Cells exposed to TPrP is above 500 nM. As to `CNC(=O)c1cc(Oc2ccc(NC(=O)Nc3ccc(Cl)c(C(F)(F)F)c3)cc2)ccn1` [sorafenib, reference compound], the “neuroprotective activity” value in test [1] is “entirely lacked neuroprotective activity”.

For `COc1ccc(-c2cc(C(F)(F)F)n3ncc(C(=O)NCCCCn4ccnc4)c3n2)cc1` [SR3-5312], the EC50 in the test on Cells exposed to TPrP turned out to be 6 nM.

Take `CC(O)c1cccc(Nc2nnc(Cc3ccncc3)c3ccccc23)c1` (centres unmarked) [SR-29684]: the EC50 in the test with Cells exposed to TPrP is 2 nM. For the compound `CCNS(=O)(=O)c1ccc(Nc2nc(-c3sc(C)nc3C)cs2)cc1` [SR-27785], the EC50 with Cells exposed to TPrP was 500 nM. Take `CCOc1ccc(-c2cc(C)n3ncc(C(=O)NCCCn4ccnc4C)c3n2)cc1` [SR0-29245]: in the test on Cells exposed to TPrP, the concentration giving a half-maximal response (EC50) turned out to be 1.2 nM. With `COc1ccc(-c2cc(C(F)(F)F)n3ncc(C(=O)NCCCn4ccnc4F)c3n2)cc1` [SR0-28467], the EC50 with Cells exposed to TPrP is 16 nM. On the same count and under the same terms, the result for `COc1ccc(-c2cc(C(F)(F)F)n3ncc(C(=O)NCCCn4cnc5ccccc54)c3n2)cc1` [SR3-5313] reads above 16 nM; that for `c1ccc2oc(CNc3nnc(Cc4ccncc4)c4ccccc34)nc2c1` [SR-27888], 45 nM; that for `COc1ccc(-c2cc(C)n3ncc(C(=O)NCCCn4ccnc4)c3n2)cc1` [SR3-5170], 1 nM. Still for that read-out and setting: the result for `CCOC(=O)c1c(CC)ncc2[nH]c3cc(OC)c(OC)cc3c12` [SR26084] reads around 10000 nM; that for `c1ccc2c(c1)CCC2Nc1nnc(Cc2ccncc2)c2ccccc12` (centres unmarked) [SR-27884], 500 nM.

`COc1ccc(-c2cc(C(C)C)n3ncc(C(=O)NCCCn4ccnc4)c3n2)cc1` [SR3-5311]: the EC50 in the test with Cells exposed to TPrP worked out at 0.4 nM. For the compound `c1ccc2c(c1)CC(CNc1nnc(Cc3ccncc3)c3ccccc13)O2` (centres unmarked) [SR-30024], the EC50 in the test with Cells exposed to TPrP amounted to 8 nM. Consider `c1ccc2c(c1)CC(Nc1nnc(Cc3ccncc3)c3ccccc13)C2` [SR-27885], for which, in the test on Cells exposed to TPrP, the EC50 came to 200 nM. On to `c1ccc2[nH]c(CNc3nnc(Cc4ccncc4)c4ccccc34)cc2c1` [SR-30006], for which the EC50 in the test with Cells exposed to TPrP was determined as 30 nM. In the case of `Cc1nc(C)c(-c2csc(Nc3ccc(S(=O)(=O)N4CCCC4)cc3)n2)s1` [SR-28545], in the test on Cells exposed to TPrP, the EC50 is above 500 nM. The same measure, in the same setting: the result for `CCCNS(=O)(=O)c1ccc(Nc2nc(-c3ccncc3)cs2)cc1` [SR-27804] reads 170 nM; that for `Cc1nc(N)sc1-c1csc(Nc2ccc(S(N)(=O)=O)cc2)n1` [SR-28552], 160 nM. For the compound `COc1cc2nccc(Oc3ccc(NC(=O)Nc4cc(C)on4)c(Cl)c3)c2cc1OC` [tivozanib, reference compound], the “neuroprotective activity” value in test [1] is “entirely lacked neuroprotective activity”. Turning to `c1ccc2oc(CNc3nnc(Cc4ccncc4)c4ccccc34)cc2c1` [SR-30011], the EC50 with Cells exposed to TPrP amounted to 2 nM.

Take `COc1ccc(-c2cc(C(F)(F)F)n3nc(C)c(C(=O)NCCCn4ccnc4C)c3n2)cc1` [SR0-29250]: the EC50 in the test with Cells exposed to TPrP is 3.6 nM. On the same count and under the same terms, in the case of `CCc1cc(-c2ccc(OC)cc2)nc2c(C(=O)NCCCn3ccnc3)cnn12` [SR3-5310] it was 0.6 nM; in that of `CNS(=O)(=O)c1ccc(Nc2nc(-c3ccncc3)cs2)cc1` [SR-27806], 60 nM; in that of `CCCNS(=O)(=O)c1ccc(Nc2nc(-c3sc(C)nc3C)cs2)cc1` [SR-27805], above 500 nM. Still for that read-out and setting: the result for `COc1ccc(-c2cc(C(F)(F)F)n3ncc(C(=O)NCCn4ccnc4)c3n2)cc1` [SR3-5290] reads above 32 nM. Same read-out and setting: the result for `COc1ccc(CNc2nnc(Cc3ccncc3)c3ccccc23)cc1OC` [SR-27886] reads 140 nM; that for `c1coc(CNc2nnc(Cc3ccncc3)c3ccccc23)c1` [SR-30005], 15 nM; that for `Cc1nccn1CCCNC(=O)c1cnn2c(C)cc(-c3ccc4c(c3)OCO4)nc12` [SR0-29247], 2.2 nM. In the case of `Cc1cc(-c2ccc3c(c2)OCO3)nc2c(C(=O)NCCCn3ccnc3S(C)(=O)=O)cnn12` [SR0-31110], the EC50 with Cells exposed to TPrP is above 50 nM. On to `Cc1nc(C)c(-c2csc(Nc3ccc(S(=O)(=O)Nc4ccccc4)cc3)n2)s1` [SR-29445], for which, in the test on Cells exposed to TPrP, the EC50 was above 500 nM. Turning to `COc1ccc(-c2cc(C(F)(F)F)n3ncc(C(=O)NCCCn4ccnc4C(F)(F)F)c3n2)cc1` [SR0-28466], the EC50 in the test with Cells exposed to TPrP worked out at 20 nM. Still for that read-out and setting: the result for `COc1ccc(-c2cc(N3CCCC3)n3ncc(C(=O)NCCCn4ccnc4C)c3n2)cc1` [SR0-29249] reads 2.2 nM; that for `Cc1ccc(NS(=O)(=O)c2ccc(Nc3nc(-c4ccncc4)cs3)cc2)cc1` [SR-29446], above 500 nM.

The record behind these values is patent US12590094B2, “Compounds for the treatment of neurodegenerative and metabolic disorders” (UNIVERSITY OF FLORIDA RESEARCH FOUNDATION, INCORPORATED, priority 2019, dated 2026).
